≈ marks a conversion by molar mass, not a printed value.
How the values were obtained:
Format in all cases: cell-based
[1] = tested on: Haemophilus influenzae ATCC10211; assay: MIC, microbroth dilution; conditions: Haemophilus influenzae ATCC10211, rifS; read-out: Antimicrobial activity (MIC)
[2] = tested on: Escherichia coli ATCC25922; assay: MIC, microbroth dilution; conditions: Escherichia coli ATCC25922, rifS; read-out: Antimicrobial activity (MIC)
[3] = tested on: Streptococcus pyogenes ATCC19615; assay: MIC, microbroth dilution; conditions: Streptococcus pyogenes ATCC19615, rifS; read-out: Antimicrobial activity (MIC)
[4] = tested on: Enterococcus faecalis ATCC29212; assay: MIC, microbroth dilution; conditions: Enterococcus faecalis ATCC29212, rifS; read-out: Antimicrobial activity (MIC)
[5] = tested on: Streptococcus pneumoniae ATCC6303; assay: MIC, microbroth dilution; conditions: Streptococcus pneumoniae ATCC6303, rifS; read-out: Antimicrobial activity (MIC)
[6] = tested on: Mycobacterium smegmatis ATCC700084; assay: MIC, microbroth dilution; conditions: Mycolicibacterium smegmatis; Mycobacterium smegmatis ATCC700084, rifS; read-out: Antimicrobial activity (MIC)
[7] = tested on: Staphylococcus aureus EN1252a gyrA^S84L grlA^S80F; assay: microbe, parasite or virus in culture; conditions: Staphylococcus aureus EN1252a gyrA^S84L grlA^S80F, cipR; read-out: Antimicrobial activity (MIC)
Experimental: (§1) Representative compounds were assayed for antimicrobial activity as follows: Minimum Inhibitory Concentrations (“MICs”) were determined by the microbroth dilution method as per NCCLS guidelines (National Committee for Clinical Laboratory Standards. 2000. Methods for dilution antimicrobial susceptibility tests for bacteria that grow aerobically, 5th ed. M7-A5. National Committee for Clinical Laboratory Standards, Wayne, Pa.), except that all growth incubations were conducted at 37° C. Bacterial cultures were tested in the following bacteriological media: S. aureus, S. epidermidis, and E. coli in Cation-Adjusted Mueller-Hinton Broth, S. pneumoniae in THY Broth supplemented with 1 mg/mL catalase under 5% CO2 atmosphere, S. pyogenes in THY Broth, E. faecalis in BHI Broth, H. influenzae in BHI Broth supplemented with 0.75 μL of 1 mg/mL NAD and 150 μL of 1 mg/ml hematin per 5 mL, and M. smegmatis in Middlebrook Broth plus ADC Enrichment.
(§2) S. aureus ATCC 29213 RpoB^H418Y is a rifampin-resistant strain with a mutation in the RpoB gene of RNA polymerase. […] S. aureus EN1252a gyrA^S84L grlA^S80F is a quinolone-resistant strain due to double gene mutations of DNA gyrase and topoisomerase IV.

[8] = tested on: Staphylococcus aureus ATCC29213 rpoB^D417Y; assay: microbe, parasite or virus in culture; conditions: Staphylococcus aureus ATCC29213 rpoB^D417Y, rifR; read-out: Antimicrobial activity (MIC)
Experimental: as §1, §2

[9] = tested on: Staphylococcus aureus ATCC29213 rpoB^H418Y; assay: microbe, parasite or virus in culture; conditions: Staphylococcus aureus ATCC29213 rpoB^H418Y, rifR; read-out: Antimicrobial activity (MIC)
Experimental: as §1, §2

[10] = tested on: Staphylococcus aureus ATCC29213; assay: MIC, microbroth dilution; conditions: Staphylococcus aureus ATCC29213, rifS; read-out: Antimicrobial activity (MIC)
[11] = tested on: Staphylococcus epidermidis ATCC12228; assay: MIC, microbroth dilution; conditions: Staphylococcus epidermidis ATCC12228, rifS; read-out: Antimicrobial activity (MIC)

SMILES	MIC [1]	MIC [2]	MIC [3]	MIC [4]	MIC [5]	MIC [6]	MIC [7]	MIC [8]	MIC [9]	MIC [10]	MIC [11]
COc1c(N2CCN(C(=O)CO/N=C3/c4c5c(C)c(O)c6c4C(=O)C(N4CCOCC4)=C(NC(=O)/C(C)=C\C=C\[C@H](C)[C@H](O)[C@@H](C)[C@@H](O)[C@@H](C)[C@H](OC(C)=O)[C@H](C)[C@@H](OC)/C=C/O[C@@]3(C)O5)C6=O)C(C)C2)c(F)cc2c(=O)c(C(=O)O)cn(C3CC3)c12 (stereo partly drawn) [Example 30, 11-Deoxy-3-(morpholin-4-yl)-11-{2-oxo-2-[4-(3-carboxy-1-cyclopropyl-6-fluoro-8-methoxy-4-oxo-1,4-dihydroquinolin-7-yl)-2-methylpiperazin-1-yl]ethoxyimino}rifamycin S]	0.03 to 2 µg/mL (≈ 0.0248 to 1.65 µM)	0.125 to 8 µg/mL (≈ 0.103 to 6.6 µM)	0.0005 to 0.063 µg/mL (≈ 0.000413 to 0.052 µM)	2 to 32 µg/mL (≈ 1.65 to 26.4 µM)	0.0002 to 0.125 µg/mL (≈ 0.000165 to 0.103 µM)	0.5 to 64 µg/mL (≈ 0.413 to 52.8 µM)	0.004 to 0.5 µg/mL (≈ 0.0033 to 0.413 µM)	0.25 to 32 µg/mL (≈ 0.206 to 26.4 µM)	0.125 to 16 µg/mL (≈ 0.103 to 13.2 µM)	0.004 to 0.5 µg/mL (≈ 0.0033 to 0.413 µM)	0.0005 to 0.063 µg/mL (≈ 0.000413 to 0.052 µM)
CO[C@H]1/C=C/O[C@@]2(C)Oc3c(C)c(O)c4c(c3/C2=N/O)C(=O)C(CO)=C(NC(=O)/C(C)=C\C=C\[C@H](C)[C@H](O)[C@@H](C)[C@@H](O)[C@@H](C)[C@H](OC(C)=O)[C@@H]1C)C4=O [Example 27]	0.03 to 2 µg/mL (≈ 0.0405 to 2.7 µM)	0.125 to 8 µg/mL (≈ 0.169 to 10.8 µM)	0.0005 to 0.063 µg/mL (≈ 0.000675 to 0.085 µM)	2 to 32 µg/mL (≈ 2.7 to 43.2 µM)	0.0002 to 0.125 µg/mL (≈ 0.00027 to 0.169 µM)	0.5 to 64 µg/mL (≈ 0.675 to 86.4 µM)	0.004 to 0.5 µg/mL (≈ 0.0054 to 0.675 µM)	0.25 to 32 µg/mL (≈ 0.337 to 43.2 µM)	0.125 to 16 µg/mL (≈ 0.169 to 21.6 µM)	0.004 to 0.5 µg/mL (≈ 0.0054 to 0.675 µM)	0.0005 to 0.063 µg/mL (≈ 0.000675 to 0.085 µM)
CO[C@H]1/C=C/O[C@@]2(C)Oc3c(C)c(O)c4c(c3/C2=N/OCCN2CCN(c3ccccc3O)CC2)C(=O)C=C(NC(=O)/C(C)=C\C=C\[C@H](C)[C@H](O)[C@@H](C)[C@@H](O)[C@@H](C)[C@H](OC(C)=O)[C@@H]1C)C4=O [Example 26, 11-Deoxy-11-{2-[4-(2-hydroxy-phenyl)piperazin-1-yl]ethoxyimino}rifamycin S]	0.03 to 2 µg/mL (≈ 0.0328 to 2.19 µM)	0.125 to 8 µg/mL (≈ 0.137 to 8.74 µM)	0.0005 to 0.063 µg/mL (≈ 0.000546 to 0.0688 µM)	2 to 32 µg/mL (≈ 2.19 to 35 µM)	0.0002 to 0.125 µg/mL (≈ 0.000219 to 0.137 µM)	0.5 to 64 µg/mL (≈ 0.546 to 69.9 µM)	0.004 to 0.5 µg/mL (≈ 0.00437 to 0.546 µM)	0.25 to 32 µg/mL (≈ 0.273 to 35 µM)	0.125 to 16 µg/mL (≈ 0.137 to 17.5 µM)	0.004 to 0.5 µg/mL (≈ 0.00437 to 0.546 µM)	0.0005 to 0.063 µg/mL (≈ 0.000546 to 0.0688 µM)
CO[C@H]1/C=C/O[C@@]2(C)Oc3c(C)c(O)c4c(O)c(c(/C=N/N5CCN(C)CC5)c(O)c4c3/C2=N/O)NC(=O)/C(C)=C\C=C\[C@H](C)[C@H](O)[C@@H](C)[C@@H](O)[C@@H](C)[C@H](OC(C)=O)[C@@H]1C [Example 37, 11-Deoxy-11-hydroxyimino-3-(4-methylpiperazin-1-yl)aminomethenylrifamycin SV]	0.03 to 2 µg/mL (≈ 0.0358 to 2.39 µM)	0.125 to 8 µg/mL (≈ 0.149 to 9.55 µM)	0.0005 to 0.063 µg/mL (≈ 0.000597 to 0.0752 µM)	2 to 32 µg/mL (≈ 2.39 to 38.2 µM)	0.0002 to 0.125 µg/mL (≈ 0.000239 to 0.149 µM)	0.5 to 64 µg/mL (≈ 0.597 to 76.4 µM)	0.004 to 0.5 µg/mL (≈ 0.00477 to 0.597 µM)	0.25 to 32 µg/mL (≈ 0.298 to 38.2 µM)	0.125 to 16 µg/mL (≈ 0.149 to 19.1 µM)	0.004 to 0.5 µg/mL (≈ 0.00477 to 0.597 µM)	0.0005 to 0.063 µg/mL (≈ 0.000597 to 0.0752 µM)
C=CCO/N=C1/c2c3c(C)c(O)c4c2C(=O)C=C(NC(=O)/C(C)=C\C=C\[C@H](C)[C@H](O)[C@@H](C)[C@@H](O)[C@@H](C)[C@H](OC(C)=O)[C@H](C)[C@@H](OC)/C=C/O[C@@]1(C)O3)C4=O [Example 11, 11-Deoxy-11-allyloxyiminorifamycin S]	0.03 to 2 µg/mL (≈ 0.04 to 2.66 µM)	0.125 to 8 µg/mL (≈ 0.166 to 10.7 µM)	0.0005 to 0.063 µg/mL (≈ 0.000666 to 0.0839 µM)	2 to 32 µg/mL (≈ 2.66 to 42.6 µM)	0.0002 to 0.125 µg/mL (≈ 0.000266 to 0.166 µM)	0.5 to 64 µg/mL (≈ 0.666 to 85.2 µM)	0.004 to 0.5 µg/mL (≈ 0.00533 to 0.666 µM)	0.25 to 32 µg/mL (≈ 0.333 to 42.6 µM)	0.125 to 16 µg/mL (≈ 0.166 to 21.3 µM)	0.004 to 0.5 µg/mL (≈ 0.00533 to 0.666 µM)	0.0005 to 0.063 µg/mL (≈ 0.000666 to 0.0839 µM)
CO[C@H]1/C=C/O[C@@]2(C)Oc3c(C)c(O)c4c(c3/C2=N/OCCN2CCOCC2)C(=O)C=C(NC(=O)/C(C)=C\C=C\[C@H](C)[C@H](O)[C@@H](C)[C@@H](O)[C@@H](C)[C@H](OC(C)=O)[C@@H]1C)C4=O [Example 24]	0.03 to 2 µg/mL (≈ 0.0364 to 2.43 µM)	0.125 to 8 µg/mL (≈ 0.152 to 9.71 µM)	0.0005 to 0.063 µg/mL (≈ 0.000607 to 0.0765 µM)	2 to 32 µg/mL (≈ 2.43 to 38.8 µM)	0.0002 to 0.125 µg/mL (≈ 0.000243 to 0.152 µM)	0.5 to 64 µg/mL (≈ 0.607 to 77.7 µM)	0.004 to 0.5 µg/mL (≈ 0.00485 to 0.607 µM)	0.25 to 32 µg/mL (≈ 0.303 to 38.8 µM)	0.125 to 16 µg/mL (≈ 0.152 to 19.4 µM)	0.004 to 0.5 µg/mL (≈ 0.00485 to 0.607 µM)	0.0005 to 0.063 µg/mL (≈ 0.000607 to 0.0765 µM)

Reference: US7256187B2, “Rifamycin C-11 oxime derivatives effective against drug-resistant microbes” (Cumbre Pharmaceuticals Inc., priority 2004, dated 2007)
